Data taken from patent US20070015774A1, “Quinazoline derivatives useful in cancer treatment” (Schering Corporation, priority 2005, published 2007).
Read-outs that look alike come from different tables or passages of the source.

Molecular target: GST-p53 DNA binding domain (aa 92-aa 312) (Homo sapiens, UniProt P04637)
Assay: Scintillation Proximity Assay (SPA), displacement of 3H STANDARD COMPOUND
Conditions: 1 h, 2 ug/mL of drug, number in brackets = number of determinations averaged, read-out: SPA ASSAY % Residual T @ 2 ug/mL of drug (Average of)
Description: Most of the oncogenic mutants of the tumor suppressor protein p53 lack sequence specific DNA binding activity at physiological temperature due to conformational changes in the DNA binding domain. Small molecules and peptide which bind to the p53 DNA binding domain stabilize the conformation and restore DNA binding activity to mutant p53 protein (Science 286, 2507-2510, 1999; PNAS, 99, 937-942, 2002). Using ^3H STANDARD COMPOUND (structure shown below; carbon atom with * is the atom labelled), [drawing 1366] a radio labeled small molecule which binds to p53, and the GST-p53 DNA binding domain (aa 92-aa 312), we have developed a quantitative screening assay. The assay is based on Scintillation Proximity Assay (SPA) technology, developed by Amersham Biosciences to measure molecular interactions. Briefly, the complex of GST-p53, ^3H STANDARD and Glutathione-SPA beads (Amersham Biosciences) are incubated with mixing for 1 hr at room temperature in the presence of the novel compounds to be screened. The signal is read on Microbeta. The compounds which have the ability to displace ^3H STANDARD COMPOUND are selected. Such molecules will stabilize the conformation and restore DNA binding activity to mutant p53 protein.
The above assay was used to determine the ability of the compounds of this invention to directly bind to p53 core and restore DNA binding activity to mutant p53 and the results for selected compounds have been given above in various tables.
A letter rating corresponding to % Residual total binding (T) @ 2 ug/mL of drug (i.e., compound of the present invention) from this assay have been assigned as follows: Compounds having % Residual T values of from 0% to less than 20% have been assigned the letter “A”. Compounds having % Residual T values of from 20% to less than 40% have been assigned the letter “B”. Compounds having % Residual T values of from 40% to less than 80% have been assigned the letter “C”. Compounds having % Residual T values of 80% or higher have been assigned the letter “D”. The exact % Residual T values @ 2 ug/mL for some illustrative compounds are shown below: […]

GST-p53 DNA binding domain (aa 92-aa 312), sequence (P04637 92-312): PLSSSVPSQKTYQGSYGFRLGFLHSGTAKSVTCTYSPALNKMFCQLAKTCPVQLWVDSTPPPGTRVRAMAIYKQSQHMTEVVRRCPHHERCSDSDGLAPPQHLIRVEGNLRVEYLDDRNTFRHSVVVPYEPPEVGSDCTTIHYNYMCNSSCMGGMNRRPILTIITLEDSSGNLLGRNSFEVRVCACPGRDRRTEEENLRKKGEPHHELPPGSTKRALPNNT

- remaining activity at 2 µg/mL (exact values): 7.8%
- remaining activity at 2 µg/mL (letter rating): 0 to 20%
SMILES: CN(C)CCCNc1nc(CN(C)C2CCC(C(C)(C)C)CC2)nc2ccccc12 (centres unmarked) [38-84]
